Where “and” joins values, the source holds several entries; their conditions need not be identical. Equal entries are not always repeated.
Experiments:
[1] = test system: ADP-induced platelet aggregation; experiment: Inhibition of ADP-induced platelet aggregation, 96-well light transmission aggregometry; format: cell-based, human; conditions: for IC50: 20 μM ADP; for effect of pre-incubation / time on inhibition of ADP-induced platelet aggregation, in words: data not shown
Experimental: Platelets were isolated from 400 mL whole blood containing 56 mL of CPDA-1 anticoagulant purchased from Chung-Nam Blood Center (Daejeon, South Korea) by centrifugation at 260× g for 5 min. The resultant platelet-rich plasma was centrifuged at 370× g for 6 min, and the platelet pellet (10^9/mL) was resuspended in 45 mL plasma and stabilized by agitation for 1 h at 22 °C in blood reservoir. The product was used for experiments within 24 h. Platelet concentrate (PC) was transferred to a new 50-mL Falcon tube and the number of platelets was counted using the ABC Vet blood counter (ABX Diagnostics, Montpellier, France). A 30-mL volume of PCs from the same donor was centrifuged at 1500× g for 10 min at room temperature to obtain platelet-poor plasma (PPP). The platelet count was adjusted to 3–4 × 10^8/mL by diluting with PPP.
Inhibition of ADP-induced aggregation was assessed in a Costar 96-well flat-bottom plate (Sigma-Aldrich, St. Louis, MO, USA) at room temperature. A 188-µL volume of the diluted platelet was added to each well of the plate along with 2 µL of test compound dissolved in dimethyl sulfoxide (DMSO). The reagents were mixed by placing the plate on a shaker at 1050 rpm for 1 min. A 10-µL volume of 400 μM ADP (final concentration: 20 μM) was added to the wells, and after additional shaking at room temperature for 3 min, the absorption of the samples was read at 595 nm on a Softmax microplate reader (Molecular Devices, Sunnyvale, CA, USA). A dose-response curve was generated using serial dilutions of ADP by adding the vehicle DMSO instead of antagonists in order to calculate the half-maximal effective concentration (EC50) of ADP. Inhibition of aggregation was determined as the increase in absorption at 595 nm after 3 min of incubation relative to absorption values of control preparations (0 and 20 μM ADP without antagonists). Sigmoidal dose-response curves and half-maximal inhibitory concentration (IC50) were derived by non-linear regression analysis using Prism 5.01 software (GraphPad, San Diego, CA, USA).

rhP2Y13 receptor = biological target: T1, rhP2Y13 receptor (Homo sapiens, UniProt Q9BPV8); experiment: rhP2Y13 receptor [3H]2-MeSADP binding assay (COS-7 membranes)
T1 construct: expressed in transfected cells
T1 sequence (Q9BPV8 1-354): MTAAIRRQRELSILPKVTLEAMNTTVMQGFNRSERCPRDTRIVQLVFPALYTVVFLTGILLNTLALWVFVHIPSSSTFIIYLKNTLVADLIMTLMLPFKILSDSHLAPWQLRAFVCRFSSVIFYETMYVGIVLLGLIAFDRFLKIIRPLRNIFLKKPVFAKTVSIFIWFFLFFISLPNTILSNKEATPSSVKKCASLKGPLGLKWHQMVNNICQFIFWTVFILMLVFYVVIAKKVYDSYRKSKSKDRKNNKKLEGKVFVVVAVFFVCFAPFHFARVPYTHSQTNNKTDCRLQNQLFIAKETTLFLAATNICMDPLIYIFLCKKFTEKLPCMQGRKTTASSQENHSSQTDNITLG
Experimental: (§1) The pDisplay-human P2Y12 DNA clone and pDisplay-human P2Y13 DNA clone were stably expressed in HEK293T and COS-7 cells, respectively; recombinant human (rh)P2Y12- and rhP2Y13-expressing cells were resuspended in hypotonic buffer consisting of 10 mM HEPES, 10 mM NaCl, 1 mM EDTA, 1 mM EGTA (pH 7.4), and protease inhibitor cocktail. Following 15-min incubation on ice, cells were homogenized on ice using a glass/teflon homogenizer (1000 rpm, 10 strokes). The homogenate was centrifuged at 500 × g for 15 min and the supernatant was centrifuged at 100,000× g for 30 min. The membrane pellet was adjusted to 1 mg/mL with membrane buffer consisting of 10 mM HEPES, 5 mM KCl, and 130 mM NaCl (pH 7.4) and stored at −80 °C. A 100-μL volume of 0.2 mg/mL membrane protein was added to each well of a 96-well plate along with 25 μL of test compound and [3H]2-MeSADP or [3H]ADP for a total reaction volume of 0.15 mL/well. The plate was incubated for 1 h at room temperature. The reaction was terminated by passing the solution through a GF/B filter presoaked with 0.1% polyethyleneimine using a 96-well cell harvester. […] Radioactivity of the P2Y12 receptor or P2Y13 receptor bound to the membrane were measured using a scintillation TopCount instrument (PerkinElmer, Boston, MA, USA). […] Percent inhibition of binding was calculated as follows: (100—(specific binding in the presence of test material/specific binding in the absence of test material × 100)).

human P2Y1 receptor = biological target: T2, human P2Y1 receptor (Homo sapiens, UniProt P47900); experiment: P2Y1-mediated Ca2+ mobilization in NIH3T3-P2Y1 + Gq cells (FLIPR); format: cell-based; conditions: for inhibitory effect at P2Y1 receptor, in words: up to 100 μM
T2 construct: expressed in transfected cells
T2 sequence (P47900 whole entry): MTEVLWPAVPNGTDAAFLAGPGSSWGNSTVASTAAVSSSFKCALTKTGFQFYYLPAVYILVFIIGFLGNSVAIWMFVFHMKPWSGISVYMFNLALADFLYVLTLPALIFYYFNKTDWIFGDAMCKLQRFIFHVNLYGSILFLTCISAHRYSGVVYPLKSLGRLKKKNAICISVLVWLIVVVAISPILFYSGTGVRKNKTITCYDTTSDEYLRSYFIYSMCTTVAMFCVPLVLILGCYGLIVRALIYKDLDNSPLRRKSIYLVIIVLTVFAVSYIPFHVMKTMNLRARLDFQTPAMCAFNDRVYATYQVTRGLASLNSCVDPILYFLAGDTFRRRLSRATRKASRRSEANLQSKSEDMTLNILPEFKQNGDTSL
Experimental: Intracellular Ca^2+ mobilization was analyzed using the FLIPR 5 assay kit as previously described. Briefly, pDisplay-human P2Y1 DNA clone and pcDNA-Gq DNA clone were stably expressed in NIH3T3 cells. NIH3T3-P2Y1 + Gq cells (3 × 10^5 cells/mL) were seeded in a 96-well plate and allowed to adhere overnight. An equal volume of FLIPR 5 assay kit loading buffer (Molecular Devices) was added directly to the culture medium for 1 h at room temperature, followed by 20-min incubation after adding the test compounds. Changes in intracellular Ca^2+ were measured with a FlexStation II scanning fluorometer (Molecular Devices).

rhP2Y12 receptor [2] = biological target: T3, rhP2Y12 receptor (Homo sapiens, UniProt Q9H244); experiment: rhP2Y12 receptor binding assay with [3H]ADP (HEK293T membranes); conditions: for IC50: 3 nM [3H]ADP, HEK293T-rhP2Y12 membranes
T3 construct: expressed in transfected cells
T3 sequence (Q9H244 whole entry): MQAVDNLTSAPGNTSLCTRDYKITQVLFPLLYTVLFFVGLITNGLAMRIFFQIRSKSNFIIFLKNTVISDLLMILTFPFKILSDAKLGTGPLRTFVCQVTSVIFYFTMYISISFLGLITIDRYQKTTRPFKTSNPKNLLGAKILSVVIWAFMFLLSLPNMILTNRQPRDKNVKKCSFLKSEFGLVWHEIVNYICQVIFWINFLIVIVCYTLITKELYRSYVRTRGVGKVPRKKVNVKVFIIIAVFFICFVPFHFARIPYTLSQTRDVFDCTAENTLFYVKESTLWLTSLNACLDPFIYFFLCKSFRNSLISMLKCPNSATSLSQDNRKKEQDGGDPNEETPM
Experimental: as §1

[3] = design: method as in PMID 25065553; conditions: side effect of ticagrelor; cited from earlier work
rhP2Y12 receptor [4] = biological target: T3, rhP2Y12 receptor; experiment: rhP2Y12 receptor binding assay with [3H]-2-MeSADP (HEK293T membranes); conditions: for IC50: 1 nM [3H]-2-MeSADP, HEK293T-rhP2Y12 membranes
Experimental: as §1

[5] = Homo sapiens, Platelet, 96-well plate
[6] = read-out: IC50 vs. [3H]-2-MeSADP

Compound | IC50 [1, 5] [µM] | IC50 (rhP2Y12 receptor [2]; read-out: IC50 vs. [3H]ADP) | IC50 (rhP2Y12 receptor [4]; [6]) [µM] | other results
CCCSc1nc(N[C@@H]2C[C@H]2c2ccc(F)c(F)c2)c2nnn([C@@H]3C[C@H](OCCO)[C@@H](O)[C@H]3O)c2n1 [Ticagrelor, reference compound] | 0.32 ± 0.02 |  |  | effect of pre-incubation / time on inhibition of ADP-induced platelet aggregation, in words [1]: time-dependent manner; selectivity, rhP2Y13 in comparison to rhP2Y12 (rhP2Y13 receptor; [3H]2-MeS-ADP binding): > 1000 fold; inhibitory effect at P2Y1 receptor, in words (human P2Y1 receptor; 100 nM MRS2365): did not exert an inhibitory effect; fold lower potency vs [3H]ADP than vs [3H]2-MeSADP (rhP2Y12 receptor [2]): 210 fold; IC50 (rhP2Y12 receptor [2]; IC50 vs. [3H]ADP): 8.4 ± 3.05 µM; shortness of breath (dyspnea) incidence [3]: 14%; IC50 (rhP2Y12 receptor [4]; IC50 vs. [3H]-2-MeSADP): 0.04 ± 0.02 µM
COc1ccc(C(=O)C=CSc2nncn2C)cc1 [Compound D, 1-(4-methoxyphenyl)-3-[(4-methyl-1,2,4-triazol-3-yl)sulfanyl]prop-2-en-1-one] | 6.08 ± 0.11 | > 30 µM | > 30 | 
Cn1ncc(S(=O)(=O)Cc2ccccc2)c(Br)c1=O [Compound C, 5-benzylsulfonyl-4-bromo-2-methylpyridazin-3-one] | 4.03 ± 0.95 | > 30 µM | > 30 | 
Cc1nc(N=Nc2cc([N+](=O)[O-])ccc2Cl)c(COP(=O)(O)O)c(C=O)c1O [MRS2211] |  |  |  | IC50 (rhP2Y13 receptor; 1 nM [3H]2-MeSADP, read-out: IC50, inhibition of [3H]2-MeS-ADP binding to rhP2Y13): 9.4 µM
CNc1ncnc2c1ncn2[C@H]1C[C@H](OP(=O)(O)O)[C@@H](COP(=O)(O)O)O1 [MRS2179, reference compound] |  |  |  | IC50 ([1]; 96-well plate): 1.1 ± 0.01 µM; IC50 (human P2Y1 receptor; 100 nM MRS2365, read-out: IC50, block of MRS2365 action at P2Y1 receptor): 0.66 µM
Cn1sc(=O)c2cc(S(=O)(=O)NC3CC3)ccc21 [Compound B, N-cyclopropyl-1-methyl-3-oxo-2,1-benzothiazole-5-sulfonamide] | 9.49 ± 1.15 | > 30 µM | > 30 | 
N#Cc1nccnc1S(=O)(=O)c1cccs1 [Compound F, 3-thiophen-2-ylsulfonylpyrazine-2-carbonitrile] | 9.35 ± 2.19 | > 30 µM | > 30 | inhibition of [3H]ADP binding to rhP2Y12, in words (rhP2Y12 receptor [2]): slightly inhibited; inhibition of [3H]-2-MeSADP binding to rhP2Y12, in words (rhP2Y12 receptor [4]): slightly inhibited
COc1cccc(-n2nc(C#N)c(Cl)cc2=O)c1 [Compound A, 4-chloro-1-(3-methoxyphenyl)-6-oxopyridazine-3-carbonitrile] | 8.04 ± 0.51 | > 30 µM | > 30 | 
2-methylthioadenosine 5′-monophosphate [Compound 2-MeSAMP, reference compound] |  |  |  | IC50 ([1]; 96-well plate): 1.09 ± 0.16 µM; inhibitory effect at P2Y1 receptor, in words (human P2Y1 receptor; 100 nM MRS2365): did not exert an inhibitory effect
Nc1ncnc2c1ncn2[C@@H]1O[C@H](COP(=O)(O)OP(=O)(O)O)[C@@H](O)[C@H]1O [[^3H]ADP, reference compound] |  |  |  | Kd (rhP2Y12 receptor [2]; [3H]ADP saturation binding, read-out: Kd of radioligand at rhP2Y12 (saturation, Scatchard)): 0.0097 µM
CSc1nc(N)c2ncn([C@@H]3O[C@H](COP(=O)(O)OP(=O)(O)O)[C@@H](O)[C@H]3O)c2n1 [Compound 2-MeSADP, reference compound] |  | 17.2 ± 4.62 µM | 0.12 ± 0.02 | 
CN(C)c1ccc(C(c2cc3c(cc2O)OCO3)N2CCOCC2)cc1 (stereo not shown) [Compound E, 6-[(4-dimethylamino-phenyl)-morpholin-4-yl-methyl]-benzo[1,3]dioxol-5-ol] | 6.21 ± 0.71 | 8.3 µM and 8.33 µM | 15.5 | effect of pre-incubation / time on inhibition of ADP-induced platelet aggregation, in words [1]: did not increase the potency; inhibition of [3H]2-MeS-ADP binding to rhP2Y13, in words (rhP2Y13 receptor; up to 100 μM): did not inhibit; inhibitory effect at P2Y1 receptor, in words (human P2Y1 receptor; 100 nM MRS2365): did not exert an inhibitory effect; fold higher potency vs [3H]ADP than vs [3H]2-MeSADP (rhP2Y12 receptor [2]): 1.9 fold
CSc1nc(N)c2ncn([C@H]3[C@H](O)[C@H](O)[C@]4(COP(=O)(O)OP(=O)(O)O)C[C@H]34)c2n1 [MRS2365] |  |  |  | EC50 (human P2Y1 receptor; Ca2+ mobilization, NIH3T3-P2Y1 + Gq cells, read-out: EC50 for P2Y1 receptor activation): 0.03 µM
Nc1ncnc2c1ncn2[C@@H]1O[C@H](COP(=O)(O)OP(=O)(O)O)[C@@H](O)[C@H]1O [ADP, Adenosine 5′-diphosphate, reference compound] |  | 0.19 ± 0.1 µM | 24.8 ± 2.09 | EC50 ([1]; Homo sapiens, Platelet, 96-well plate, read-out: EC50 of ADP, concentration-dependent platelet stimulation): 4.2 µM; fold higher potency of ADP than 2-MeSADP in competing with [3H]ADP (rhP2Y12 receptor [2]): 90 fold
Nc1ncnc2c1ncn2[C@@H]1O[C@H](COP(=O)(O)OP(=O)(O)OP(=O)(O)O)[C@@H](O)[C@H]1O [ATP, Adenosine 5′-triphosphate, reference compound] | 2.14 ± 0.51 |  |  | 

— PMC6273072, “Identification of a New Morpholine Scaffold as a P2Y12 Receptor Antagonist” (Molecules, 2016)
